This is an account of results in patent publication US20260188423A1, “IDENTIFICATION OF CELL SURFACE ANTIGENS WHICH INDUCE T-CELL RESPONSES AND THEIR USES” (priority 2022, published 2026).

In series [1] the test system is peripheral mononuclear cells. The series can be described thus: ELISPOT of T-cell responses to vaccine peptides after 1st immunization of the breast cancer patient. Format: in vivo, human. To be noted: after the 1st immunization; for ELISpot: 5 days culture of PBMC from the patient. The source says: In the prior art, HLA-binding based epitope selection methods have been used for vaccine development. The epitopes in the personal vaccines made for the breast cancer patient were selected to bind at least 3 HLAs of the subject as described in the published US patent application 2018/264094. […] The potency of T-cell responses against the tumor antigens were predicted by the system described above (using HLA class I EWS, HLA class II EWS and overall EWS). The potency of T-cell responses to the vaccine peptides after the 1st immunization were measured with ELISPOT assay after 5 days culture of the peripheral mononuclear cells isolated from a blood sample of the patient (Spots/10^6 PBMC).

The test system of series [2] is antigen-specific T-cell clone. To be noted: peptide pool, response attributed to the dominant epitope, cited from earlier work.
Series [3] deals with CD8^+ T-cells. The note with it: log-fold change, cited from earlier work.
Series [4] deals with peritoneal tumour biopsies. The series can be described thus: Transcriptome analysis of the Murcia patient's peritoneal tumour biopsies. The note with it: target of 2nd generation personalized vaccines.
Text: All the putative 8-20 amino acids long epitopes were created from these proteins and used for designing the 2nd generation of personalized vaccines according to the invention. […] These antigens have different length and amino acid sequences. All selected peptide antigen contains multiple highly ranked epitopes (13-66) presented on the cell surface by the patient's HLA class I and class II molecules. The range of the potency score is indicated for the selected epitopes. Epitopes presented by the patient's HLA class I and class II molecules are indicated to induce CD8 and CD4 responses, respectively. As described in the invention, the potency of each epitope in the vaccines was calculated and indicated to inform the physician about the predicted efficacy of the personalised vaccines in the recipient.
Series [5] has as its system HeLa cells. The series can be described thus: Cellular uptake of fluorescent-labeled peptide vaccines, flow cytometry. Format: cell-based, human. To be noted: for cells taking up the vaccine: 40 μM, within 30 minutes; for cellular uptake (intensity of fluorescence) compared to control: flow cytometry, control without R8. The procedure: (§1) Methods: HeLa cells were seeded at a density of 200,000 cells per well in 6-well plates and allowed to grow for one day. On the second day, the cells were treated with the peptides at three different concentrations (2.5 μM, 10 μM, and 40 μM) for two different incubation times (15 minutes and 30 minutes). After the treatment, the cells were detached using trypsin, washed, and resuspended in PBS. The cells were then analyzed using a FACS Canto flow cytometer. A total of 30,000 events were acquired, and the percentage of fluorescent cells and fluorescent intensity (geometric mean and median) were determined through flow analysis.
as §1, with “Methods” for “Methods:”

[6] abbreviates: Subject 1327414, cohort Healthy.
Setting [7] is: ABF cohort individual AP0201, Hospitalized.
[8] abbreviates: Subject 1005699, cohort COVID-19-Acute.
The mark [9] stands for this setting: ABF cohort individual BC10, Healthy.

Read-outs that look alike come from different tables or passages of the source.

For the molecule “TLPPAWQPFLKDHRISTFKN [BIRC5 long-peptide personal vaccine of the breast cancer patient]”, in series [1], the ELISpot stood at 71 Spots/10^6 PBMC.

Regarding SVLLFLAFV, the Hits in series [2] (setting [6]) was 5.

On to “ANPKTPKYKF [SARS-COV-2 peptide of the ABF cohort data]”, for which, in series [3] (setting [7]), the LFC is on record as 0.

For “APHGVVFL [SARS-COV-2 peptide of the ABF cohort data]”, the LFC in series [3] (setting [7]) is 0.

In turn, BLTP2 had a Relative expression in series [4] of 95.

With “AFPFTIYSL [SARS-COV-2 peptide of the ABF cohort data]”, in series [3] (setting [7]), the LFC is given as 0.

VVFLHVTYV: the Hits was 1 in series [2] (setting [8]) and 8 in series [2] (setting [6]).

As for AYILFTRFFYV, the Hits in series [2] (setting [8]) is given as 3; in series [2] (setting [6]) it was 1.

As to ELIRQGTDY, the Hits in series [2] (setting [8]) is listed as 2.

Regarding VASQSIIAY, the Hits in series [2] (setting [8]) is 23; in series [2] (setting [6]) it was 4.

Consider “NEQDLVREEAQKMSSLLPTM [SPAG9 long-peptide personal vaccine of the breast cancer patient]”, for which, in series [1], the ELISpot is 0 Spots/10^6 PBMC.

As for NVFAFPFTIY, in series [2] (setting [6]), the Hits was 19.

WT1 gave a Relative expression in series [4] of 59.

In the case of “AMDEFIERY [SARS-COV-2 peptide of the ABF cohort data]”, the LFC in series [3] (setting [9]) was 0.

For “RLDQLLRHVMNPLETLSITN [PRAME long-peptide personal vaccine of the breast cancer patient]”, the ELISpot in series [1] came out at 66 Spots/10^6 PBMC.

As for “ALLAVFQSA [SARS-COV-2 peptide of the ABF cohort data]”, the LFC in series [3] (setting [9]) is reported as 0.

Consider “APISAMVRM [SARS-COV-2 peptide of the ABF cohort data]”, for which the LFC in series [3] (setting [9]) is listed as 0.

For FCNDPFLGVY, in series [2] (setting [8]), the Hits is 1.

Take “Fluoresc-THVDIRTLEDLLMGTL-RRRRRRRR-RAHYNIVTF-NH2 (fluorescein-THVDIRTLEDLLMGTLRRRRRRRRRAHYNIVTF-NH2) [HPV-specific Personalized Vaccine, E7 (HPV16)-specific VERDI Vaccine]”: in series [5] (HeLa cells), the “more peptide accumulated in each cell compared to the control vaccines (median fluorescence intensity)” value is recorded as “approximately 30%”. The “cells taking up the vaccine” value in series [5] (HeLa cells) is on record as “more than 50%”; in series [5] (HeLa cells, listed as HPV-specific vaccine), 53%. Moreover, the “cellular uptake (intensity of fluorescence) compared to control” value in series [5] is on record as “significantly higher uptake”.

Regarding “AADLDDFSKQL [SARS-COV-2 peptide of the ABF cohort data]”, the LFC in series [3] (setting [9]) is 0.

With “AHAEETRKL [SARS-COV-2 peptide of the ABF cohort data]”, the LFC in series [3] (setting [7]) was 0.

As to “SVYADQVNIDYLMNRPQNLR [AKAP4 long-peptide personal vaccine of the breast cancer patient]”, the ELISpot in series [1] was found to be 366 Spots/10^6 PBMC. Besides, the “T cell responses (ELISPOT)” value in series [1] (breast cancer patient) is given as 366 spots/million cells.

For the molecule IELSLIDFYL, the Hits in series [2] (setting [8]) is recorded as 4.

“ALTCFSTQF [SARS-COV-2 peptide of the ABF cohort data]”: in series [3] (setting [9]), the LFC is 0.

As to “ALRKVPTDNY [SARS-COV-2 peptide of the ABF cohort data]”, the LFC in series [3] (setting [9]) is listed as 0.

With “ALQDAYYRA [SARS-COV-2 peptide of the ABF cohort data]”, in series [3] (setting [9]), the LFC is on record as 0.

In the case of KEIIFLEGETL, the Hits in series [2] (setting [6]) is listed as 1.

Turning to ITLATCELY, the Hits in series [2] (setting [8]) is recorded as 12; in series [2] (setting [6]), 1.

Molecule “SGSSYFVLANGHILPNSENA [FMRINB long-peptide personal vaccine of the breast cancer patient]” showed an ELISpot in series [1] of 130 Spots/10^6 PBMC.

As for AIMTRCLAV, the Hits in series [2] (setting [6]) was 1.

For the molecule “ALLADKFPVL [SARS-COV-2 peptide of the ABF cohort data]”, the LFC in series [3] (setting [7]) and in series [3] (setting [9]) was 0 in each case.

On to “QEESFSPTAMDAIFGSLSDE [MAGEAA long-peptide personal vaccine of the breast cancer patient]”, for which the ELISpot in series [1] was found to be 0 Spots/10^6 PBMC.

Regarding FAYANRNRF, the Hits in series [2] (setting [8]) is reported as 1.

Regarding “APKEIIFL [SARS-COV-2 peptide of the ABF cohort data]”, the LFC in series [3] (setting [9]) is reported as 0.

Consider “APFLYLYAL [SARS-COV-2 peptide of the ABF cohort data]”, for which, in series [3] (setting [7]), the LFC was 0.

Take ALNTLVKQL: in series [2] (setting [6]), the Hits is 1.

With “FTSSRMSSFNRHMKTHTSEK [CTCFL long-peptide personal vaccine of the breast cancer patient]”, the ELISpot in series [1] was 48 Spots/10^6 PBMC.

Regarding “APHGVVFLHV [SARS-COV-2 peptide of the ABF cohort data]”, the LFC in series [3] (setting [7]) was 0.

With “ADLDDFSKQL [SARS-COV-2 peptide of the ABF cohort data]”, in series [3] (setting [7]), the LFC was 0.

FEYVSQPFL: the Hits in series [2] (setting [8]) is 1.

Take “ALVYFLQSI [SARS-COV-2 peptide of the ABF cohort data]”: the LFC in series [3] (setting [7]) is 0.

“Fluoresc-EEKEIIVIKDTEKKDQS-RRRRRRRR-SQFNVPMLY-NH2 (fluorescein-EEKEIIVIKDTEKKDQSRRRRRRRRSQFNVPMLY-NH2) [AKAP-4-specific Personalized Vaccine, AKAP-4-specific VERDI Vaccine]”: in series [5] (HeLa cells), the “cells taking up the vaccine” value stood at 45%. In addition, the “cellular uptake (intensity of fluorescence) compared to control” value in series [5] is on record as “significantly higher uptake”.

Molecule “SDTKDYFMSKTLGIGRLKRP [FSIP1 long-peptide personal vaccine of the breast cancer patient]” displayed an ELISpot in series [1] of 257 Spots/10^6 PBMC.

Consider DLFMRIFTI, for which the Hits in series [2] (setting [8]) was 1.

B1: SPAG9 (protein, UniProt O60271 1-1321, looked up)
C-Jun-amino-terminal …: MELEDGVVYQEEPGGSGAVMSERVSGLAGSIYREFERLIGRYDEEVVKELMPLVVAVLENLDSVFAQDQEHQVELELLRDDNEQLITQYEREKALRKHAEEKFIEFEDSQEQEKKDLQTRVESLESQTRQLELKAKNYADQISRLEEREAELKKEYNALHQRHTEMIHNYMEHLERTKLHQLSGSDQLESTAHSRIRKERPISLGIFPLPAGDGLLTPDAQKGGETPGSEQWKFQELSQPRSHTSLKVSNSPEPQKAVEQEDELSDVSQGGSKATTPASTANSDVATIPTDTPLKEENEGFVKVTDAPNKSEISKHIEVQVAQETRNVSTGSAENEEKSEVQAIIESTPELDMDKDLSGYKGSSTPTKGIENKAFDRNTESLFEELSSAGSGLIGDVDEGADLLGMGREVENLILENTQLLETKNALNIVKNDLIAKVDELTCEKDVLQGELEAVKQAKLKLEEKNRELEEELRKARAEAEDARQKAKDDDDSDIPTAQRKRFTRVEMARVLMERNQYKERLMELQEAVRWTEMIRASRENPAMQEKKRSSIWQFFSRLFSSSSNTTKKPEPPVNLKYNAPTSHVTPSVKKRSSTLSQLPGDKSKAFDFLSEETEASLASRREQKREQYRQVKAHVQKEDGRVQAFGWSLPQKYKQVTNGQGENKMKNLPVPVYLRPLDEKDTSMKLWCAVGVNLSGGKTRDGGSVVGASVFYKDVAGLDTEGSKQRSASQSSLDKLDQELKEQQKELKNQEELSSLVWICTSTHSATKVLIIDAVQPGNILDSFTVCNSHVLCIASVPGARETDYPAGEDLSESGQVDKASLCGSMTSNSSAETDSLLGGITVVGCSAEGVTGAATSPSTNGASPVMDKPPEMEAENSEVDENVPTAEEATEATEGNAGSAEDTVDISQTGVYTEHVFTDPLGVQIPEDLSPVYQSSNDSDAYKDQISVLPNEQDLVREEAQKMSSLLPTMWLGAQNGCLYVHSSVAQWRKCLHSIKLKDSILSIVHVKGIVLVALADGTLAIFHRGVDGQWDLSNYHLLDLGRPHHSIRCMTVVHDKVWCGYRNKIYVVQPKAMKIEKSFDAHPRKESQVRQLAWVGDGVWVSIRLDSTLRLYHAHTYQHLQDVDIEPYVSKMLGTGKLGFSFVRITALMVSCNRLWVGTGNGVIISIPLTETNKTSGVPGNRPGSVIRVYGDENSDKVTPGTFIPYCSMAHAQLCFHGHRDAVKFFVAVPGQVISPQSSSSGTDLTGDKAGPSAQEPGSQTPLKSMLVISGGEGYIDFRMGDEGGESELLGEDLPLEPSVTKAERSHLIVWQVMYGNE
The molecule B1 showed a Relative expression in series [4] of 70.
